According to US5024994A, “Renin inhibitors IV” (Warner-Lambert Company, priority 1988, dated 1991):

Molecular target: T1, renin (Homo sapiens, UniProt P00797)
T1 sequence (P00797 67-406): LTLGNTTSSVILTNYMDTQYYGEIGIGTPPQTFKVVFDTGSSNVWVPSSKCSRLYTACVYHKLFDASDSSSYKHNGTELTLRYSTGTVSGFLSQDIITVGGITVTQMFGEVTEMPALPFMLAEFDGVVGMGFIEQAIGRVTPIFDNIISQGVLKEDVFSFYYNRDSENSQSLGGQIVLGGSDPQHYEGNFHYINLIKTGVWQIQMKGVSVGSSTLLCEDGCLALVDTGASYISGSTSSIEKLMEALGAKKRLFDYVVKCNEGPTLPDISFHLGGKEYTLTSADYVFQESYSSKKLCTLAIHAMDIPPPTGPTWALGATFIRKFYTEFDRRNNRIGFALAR
Assay: in vitro renin inhibitory activity, radioimmunoassay for angiotensin I
Type: biochemical
Details: not given
Procedure: The effectiveness of the aforementioned compounds is determined by a test for in vitro renin inhibitory activity. This activity is determined by a standard radioimmunoassay for angiotensin I. In this assay the enzyme, renin, incubated for two hours at 37° in the presence of a substrate, angiotensinogen, generates the product, angiotensin I. Test compounds are added to the incubation mixture.

| Structure (SMILES) | IC50 |
| --- | --- |
| CCC(C)CNC(=O)C[C@H](O)[C@H](CC(C)C)NC(=O)[C@H](CCCCNP(=O)(Oc1ccccc1)Oc1ccccc1)NC(=O)C(Cc1cccc2ccccc12)Cc1cccc2ccccc12 (stereo partly shown) | 7.4 µM |
| CCC(C)CNC(=O)C[C@H](O)[C@H](CC(C)C)NC(=O)[C@H](CCCCNC(=NC#N)SC)NC(=O)C(Cc1cccc2ccccc12)Cc1cccc2ccccc12 (stereo partly shown) | 0.019 µM |
| CC[C@H](C)CNC(=O)C[C@H](O)[C@H](CC(C)C)NC(=O)[C@H](CCCCn1cccc1)NC(=O)C(Cc1cccc2ccccc12)Cc1cccc2ccccc12 | 0.087 µM |
| CC(C)C[C@H](NC(=O)C[C@H](O)[C@H](CC(C)C)NC(=O)[C@H](CCCCNC(=N)N[N+](=O)[O-])NC(=O)C(Cc1cccc2ccccc12)Cc1cccc2ccccc12)C(=O)NCc1ccccc1 | 0.015 µM |
| CNC(=S)NCCCC[C@H](NC(=O)C(Cc1cccc2ccccc12)Cc1cccc2ccccc12)C(=O)N[C@@H](CC(C)C)[C@@H](O)CC(=O)N[C@@H](CC(C)C)C(=O)NCc1ccccc1 | 0.06 µM |
| CCC(C)CNC(=O)C[C@H](O)[C@H](CC(C)C)NC(=O)C(CCCCCNC(=N)N[N+](=O)[O-])NC(=O)C(Cc1cccc2ccccc12)Cc1cccc2ccccc12 (stereo partly shown) | 0.026 µM |
| CC(C)C[C@H](NC(=O)C[C@H](O)[C@H](CC(C)C)NC(=O)C(CCCCCNC(=N)N[N+](=O)[O-])NC(=O)C(Cc1cccc2ccccc12)Cc1cccc2ccccc12)C(=O)NCc1ccccc1 (stereo partly shown) | 0.11 µM |
| CC[C@H](C)CNC(=O)C[C@H](O)[C@H](CC(C)C)NC(=O)C(CCCCCCNC(=S)NC)NC(=O)C(Cc1cccc2ccccc12)Cc1cccc2ccccc12 (stereo partly shown) | 0.045 µM |
| CC[C@H](C)CNC(=O)C[C@H](O)[C@H](CC(C)C)NC(=O)C(CC#CCNC(=O)OCc1ccccc1)NC(=O)C(Cc1cccc2ccccc12)Cc1cccc2ccccc12 (stereo partly shown) | 0.15 µM |
| CC[C@H](C)CNC(=O)C[C@H](O)[C@H](CC(C)C)NC(=O)C(NC(=O)C(Cc1cccc2ccccc12)Cc1cccc2ccccc12)C(=O)OC (stereo partly shown) | 0.023 µM |
| CCC(C)CNC(=O)C[C@H](O)[C@H](CC(C)C)NC(=O)C(NC(=O)C(CC(=O)N1CCOCC1)Cc1cccc2ccccc12)C(=O)OC (stereo partly shown) | 0.098 µM |
| CNC(=S)NCCCC[C@H](NC(=O)C(Cc1ccccc1)CS(=O)(=O)C(C)(C)C)C(=O)N[C@@H](CC1CCCCC1)[C@@H](O)CC(=O)NCCN1CCOCC1 (stereo partly shown) | 0.027 µM |
| CCC(C)CNC(=O)C[C@H](O)[C@H](CC(C)C)NC(=O)C(C/C=C/CNC(=S)NC)NC(=O)C(Cc1cccc2ccccc12)Cc1cccc2ccccc12 (stereo partly shown) | 0.041 µM |
| CC[C@H](C)CNC(=O)C[C@H](O)[C@H](CC(C)C)NC(=O)C(NC(=O)[C@H](Cc1ccccc1)NC(=O)OC(C)(C)C)C(=O)N1CCCC1 (stereo partly shown) | 0.4 µM |
| CCC(C)CNC(=O)C[C@H](O)[C@H](CC(C)C)NC(=O)[C@H](CC#N)NC(=O)[C@H](Cc1ccccc1)NC(=O)OC(C)(C)C (stereo partly shown) | 0.26 µM |

Same assay, conditions: at 10^-6 molar concentration; read-out: percent inhibition of renin activity

| inhibition at 1 µM | Structure (SMILES) |
| --- | --- |
| 28% | CC[C@H](C)CNC(=O)C[C@H](O)[C@H](CC(C)C)NC(=O)C(CCCCCCNC(=O)OCc1ccccc1)NC(=O)C(Cc1cccc2ccccc12)Cc1cccc2ccccc12 (stereo partly shown) |
| 24% | CC[C@H](C)CNC(=O)C[C@H](O)[C@H](CC(C)C)NC(=O)C(NC(=O)C(Cc1cccc2ccccc12)Cc1cccc2ccccc12)C(N)=O (stereo partly shown) |
| 26% | CC[C@H](C)CNC(=O)C[C@H](O)[C@H](CC(C)C)NC(=O)C(NC(=O)C(Cc1cccc2ccccc12)Cc1cccc2ccccc12)C(=O)NC (stereo partly shown) |

Same assay, conditions: read-out: IC50

| IC50 | Structure (SMILES) |
| --- | --- |
| 0.0096 µM | CC[C@H](C)CNC(=O)C[C@H](O)[C@H](CC(C)C)NC(=O)[C@H](CCCCNC(=S)NC)NC(=O)C(Cc1cccc2ccccc12)Cc1cccc2ccccc12 |
| 0.029 µM | CCC(C)CNC(=O)C[C@H](O)[C@H](CC(C)C)NC(=O)[C@H](CCCCNC(=O)NC)NC(=O)C(Cc1cccc2ccccc12)Cc1cccc2ccccc12 (stereo partly shown) |
| 0.046 µM | CCCCNC(=S)NCCCC[C@H](NC(=O)C(Cc1cccc2ccccc12)Cc1cccc2ccccc12)C(=O)N[C@@H](CC(C)C)[C@@H](O)CC(=O)NC[C@@H](C)CC |
| 0.058 µM | CCCCNC(=S)NCCCC[C@H](NC(=O)C(Cc1cccc2ccccc12)Cc1cccc2ccccc12)C(=O)N[C@@H](CC(C)C)[C@@H](O)CC(=O)NCC(C)CC (stereo partly shown) |
| 0.45 µM | CC[C@H](C)CNC(=O)C[C@H](O)[C@H](CC(C)C)NC(=O)[C@H](CCCCNC(=S)NCC(C)(C)C)NC(=O)C(Cc1cccc2ccccc12)Cc1cccc2ccccc12 |
| 0.0075 µM | CCC(C)CNC(=O)C[C@H](O)[C@H](CC(C)C)NC(=O)[C@H](CCCCNC(=S)NC(C)(C)CC)NC(=O)C(Cc1cccc2ccccc12)Cc1cccc2ccccc12 (stereo partly shown) |
| 0.015 µM | CCC(C)CNC(=O)C[C@H](O)[C@H](CC1CCCCC1)NC(=O)[C@H](CCCCNC(=N)N[N+](=O)[O-])NC(=O)C(Cc1cccc2ccccc12)Cc1cccc2ccccc12 (stereo partly shown) |
| 0.018 µM | CCC(C)CNC(=O)C[C@H](O)[C@H](CC(C)C)NC(=O)[C@H](CCCCNC(N)=NC#N)NC(=O)C(Cc1cccc2ccccc12)Cc1cccc2ccccc12 (stereo partly shown) |
| 0.015 µM | CCC(C)CNC(=O)C[C@H](O)[C@H](CC(C)C)NC(=O)[C@H](CCCCNC(=NC#N)NC)NC(=O)C(Cc1cccc2ccccc12)Cc1cccc2ccccc12 (stereo partly shown) |
| 0.54 µM | CCC(C)CNC(=O)C[C@H](O)[C@H](CC(C)C)NC(=O)[C@H](CCCCn1cccc1)NC(=O)C(Cc1cccc2ccccc12)Cc1cccc2ccccc12 (stereo partly shown) |
| 0.084 µM | CNC(=O)NCCCC[C@H](NC(=O)C(Cc1cccc2ccccc12)Cc1cccc2ccccc12)C(=O)N[C@@H](CC(C)C)[C@@H](O)CC(=O)N[C@@H](CC(C)C)C(=O)NCc1ccccc1 |
| 0.29 µM | CCC(C)CNC(=O)C[C@H](O)[C@H](CC(C)C)NC(=O)C(CCCCCNC(=O)OCc1ccccc1)NC(=O)C(Cc1cccc2ccccc12)Cc1cccc2ccccc12 (stereo partly shown) |
| 0.04 µM | CCC(C)CNC(=O)C[C@H](O)[C@H](CC(C)C)NC(=O)C(CCCCCNC(=S)NC)NC(=O)C(Cc1cccc2ccccc12)Cc1cccc2ccccc12 (stereo partly shown) |
| 0.045 µM | CC[C@H](C)CNC(=O)C[C@H](O)[C@H](CC(C)C)NC(=O)C(CCCCCCNC(N)=NC#N)NC(=O)C(Cc1cccc2ccccc12)Cc1cccc2ccccc12 (stereo partly shown) |
| 0.059 µM | CC(C)C[C@H](NC(=O)C[C@H](O)[C@H](CC(C)C)NC(=O)C(CCCCCCNC(=O)OCc1ccccc1)NC(=O)C(Cc1cccc2ccccc12)Cc1cccc2ccccc12)C(=O)NCc1ccccc1 (stereo partly shown) |
| 0.28 µM | CC[C@H](C)CNC(=O)C[C@H](O)[C@H](CC(C)C)NC(=O)[C@H](CCCNC(=S)NC)NC(=O)C(Cc1cccc2ccccc12)Cc1cccc2ccccc12 |
| 0.89 µM | CC[C@H](C)CNC(=O)C[C@H](O)[C@H](CC(C)C)NC(=O)[C@H](CCCNC(=O)NC)NC(=O)C(Cc1cccc2ccccc12)Cc1cccc2ccccc12 |

| IC50 | Structure (SMILES) |
| --- | --- |
| 0.05 µM | CC[C@H](C)CNC(=O)C[C@H](O)[C@H](CC(C)C)NC(=O)[C@H](CCCCNC(N)=O)NC(=O)C(Cc1cccc2ccccc12)Cc1cccc2ccccc12 |
| 0.041 µM | CC[C@H](C)CNC(=O)C[C@H](O)[C@H](CC(C)C)NC(=O)C(NC(=O)[C@H](Cc1ccccc1)NC(=O)OC(C)(C)C)C(=O)OC (stereo partly shown) |
| 3.1 µM | CC[C@H](C)CNC(=O)C[C@H](O)[C@H](CC(C)C)NC(=O)C(NC(=O)C(Cc1cccc2ccccc12)Cc1cccc2ccccc12)C(=O)NCCc1cnc[nH]1 (stereo partly shown) |
| 0.2 µM | CC[C@H](C)CNC(=O)C[C@H](O)[C@H](CC(C)C)NC(=O)C(NC(=O)C(Cc1cccc2ccccc12)Cc1cccc2ccccc12)C(=O)N(C)C (stereo partly shown) |
| 2.8 µM | CC[C@H](C)CNC(=O)C[C@H](O)[C@H](CC(C)C)NC(=O)C(Cc1nc2ccccc2[nH]1)NC(=O)C(Cc1cccc2ccccc12)Cc1cccc2ccccc12 (stereo partly shown) |
| 0.57 µM | CC[C@H](C)CNC(=O)C[C@H](O)[C@H](CC(C)C)NC(=O)C(CC#N)NC(=O)[C@H](Cc1ccccc1)NC(=O)CC(C)C (stereo partly shown) |
| 0.023 µM | CCOC(=O)C(NC(=O)C(Cc1cccc2ccccc12)Cc1cccc2ccccc12)C(=O)N[C@@H](CC(C)C)[C@@H](O)CC(=O)NC[C@@H](C)CC (stereo partly shown) |
| 1.2 µM | CC[C@H](C)CNC(=O)C[C@H](O)[C@H](CC(C)C)NC(=O)C(CCCCCC(=O)NC)NC(=O)C(Cc1cccc2ccccc12)Cc1cccc2ccccc12 (stereo partly shown) |
| 0.033 µM | CCC(C)CNC(=O)C[C@H](O)[C@H](CC(C)C)NC(=O)C(NC(=O)C(Cc1cccc2ccccc12)Cc1cccc2ccccc12)C(=O)OC(C)C (stereo partly shown) |
| 0.1 µM | CCC(C)CNC(=O)C[C@H](O)[C@H](CC(C)C)NC(=O)C(C/C=C\CNC(C)=O)NC(=O)C(Cc1cccc2ccccc12)Cc1cccc2ccccc12 (stereo partly shown) |
| 0.7 µM | CC(C)(C)OC(=O)NCC#CCC(NC(=O)C(Cc1cccc2ccccc12)Cc1cccc2ccccc12)C(=O)N[C@@H](CC1CCCCC1)[C@@H](O)CC(=O)NCCN1CCOCC1 (stereo partly shown) |
| 0.008 µM | O=CNCC#CCC(NC(=O)C(Cc1cccc2ccccc12)Cc1cccc2ccccc12)C(=O)N[C@@H](CC1CCCCC1)[C@@H](O)CC(=O)NCCN1CCOCC1 (stereo partly shown) |
| 0.0086 µM | CC(=O)NCC#CCC(NC(=O)C(Cc1cccc2ccccc12)Cc1cccc2ccccc12)C(=O)N[C@@H](CC1CCCCC1)[C@@H](O)CC(=O)NCCN1CCOCC1 (stereo partly shown) |
| 0.012 µM | N=C(NCC#CCC(NC(=O)C(Cc1cccc2ccccc12)Cc1cccc2ccccc12)C(=O)N[C@@H](CC1CCCCC1)[C@@H](O)CC(=O)NCCN1CCOCC1)N[N+](=O)[O-] (stereo partly shown) |
| 0.048 µM | CNC(=S)NCC#CCC(NC(=O)C(Cc1cccc2ccccc12)Cc1cccc2ccccc12)C(=O)N[C@@H](CC1CCCCC1)[C@@H](O)CC(=O)NCCN1CCOCC1 (stereo partly shown) |
| 0.098 µM | CC[C@H](C)CNC(=O)C[C@H](O)[C@H](CC(C)C)NC(=O)[C@H](CCCCNC(=O)CSC)NC(=O)C(Cc1cccc2ccccc12)Cc1cccc2ccccc12 |
| 0.068 µM | CC[C@H](C)CNC(=O)C[C@H](O)[C@H](CC(C)C)NC(=O)[C@H](CCCCNC(=O)CS(C)(=O)=O)NC(=O)C(Cc1cccc2ccccc12)Cc1cccc2ccccc12 |
